Experimental data reported in PMC3362676 (Cellular Signalling, 2012).
Ends that are not written are not given here. Peptide text beside a SMILES is read from it.

Legend:
kB2R = kB2R (Homo sapiens, UniProt P30411); conditions: HEK-kB2R
[1] = ref [2], [9], [21], [24]; cited from earlier work
[2] = system: HEK cells stably expressing kB1R; conditions: HEK cells expressing only the kB1R; 10 μM peptide in PBS; 30 min, 37 °C; HPLC
CPM = assay: HEK cells stably expressing CPM, in PBS; conditions: human, 37 °C, up to 30 min

kB2R, sequence (P30411 whole entry): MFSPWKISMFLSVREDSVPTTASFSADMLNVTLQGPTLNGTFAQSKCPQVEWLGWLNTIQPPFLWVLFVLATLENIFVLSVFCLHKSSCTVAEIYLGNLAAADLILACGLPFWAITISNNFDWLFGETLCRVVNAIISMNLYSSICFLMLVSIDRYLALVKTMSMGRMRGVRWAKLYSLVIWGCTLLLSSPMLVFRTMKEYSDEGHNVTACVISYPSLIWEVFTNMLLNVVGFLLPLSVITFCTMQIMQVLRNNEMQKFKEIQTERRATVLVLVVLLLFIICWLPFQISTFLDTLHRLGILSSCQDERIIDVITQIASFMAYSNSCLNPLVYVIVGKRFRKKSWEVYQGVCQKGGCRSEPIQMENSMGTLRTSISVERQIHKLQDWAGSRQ

In the case of N=C(N)NCCC[C@H](NC(=O)[C@H](Cc1ccccc1)NC(=O)[C@@H]1CCCN1C(=O)[C@H](CO)NC(=O)[C@H](Cc1ccccc1)NC(=O)CNC(=O)[C@@H]1CCCN1C(=O)[C@@H]1CCCN1C(=O)[C@@H](N)CCCNC(=N)N)C(=O)O [BK, Bradykinin] (H-RPPGFSPFR-OH), the “maximal ERK1/2 phosphorylation maintained from 40 – 60 min” value (kB2R; 1 μM BK, 40 – 60 min) is reported as 40%.
For NC(N)=NCCC[C@H](NC(=O)[C@H](Cc1ccccc1)NC(=O)[C@@H]1CCCN1C(=O)[C@H](CO)NC(=O)[C@H](Cc1ccccc1)NC(=O)CNC(=O)[C@@H]1CCCN1C(=O)[C@@H]1CCCN1C(=O)[C@@H](N)CCCN=C(N)N)C(=O)O [BK, Bradykinin] (H-RPPGFSPFR-OH), the lifetime in vivo [1] is given as “lower than 30 seconds” and the hydrolysis of peptide [2] is given as “no detectable hydrolysis”.
For NCCCC[C@H](N)C(=O)N[C@@H](CCCN=C(N)N)C(=O)N1CCC[C@H]1C(=O)N1CCC[C@H]1C(=O)NCC(=O)N[C@@H](Cc1ccccc1)C(=O)N[C@@H](CO)C(=O)N1CCC[C@H]1C(=O)N[C@@H](Cc1ccccc1)C(=O)N[C@@H](CCCN=C(N)N)C(=O)O [KD, Kallidin], the lifetime in vivo [1] is given as “lower than 30 seconds” and the “maximal ERK1/2 activation still remaining at 40 min” value (kB2R; 1 μM KD, 40 min) is given as 80%.
In the case of KRPPGFSPFK, the cleaved bond (CPM) is reported as “Phe-Lys10, 30 min”.
For RPPGFSPFK, the cleaved bond (CPM) was “Phe-Lys9, 30 min”.
In the case of RPPGFSPFR, the cleaved bond (CPM) is reported as “Phe-Arg9, 30 min”.
